In ChEMBL document CHEMBL5252611, “2- and 3-Fluoro-3-deaza-1',6'-isoneplanocin: Synthesis and antiviral properties (including Ebola and Marburg)” (Bioorg Med Chem Lett, 2023):
pEC50: −log10 of the molar value. Active and inactive are the calls of the source. The rule behind the calls is not given here.

Assays:
Zaire ebolavirus = experiment: Antiviral activity against Zaire ebolavirus infected in African green monkey Vero cells; assay type: functional, organism-based
[1] = Selectivity index, ratio of CC50 for cytotoxicity against African green monkey Vero cells infected with Marburgvirus Angola to EC50 for antiviral activity against Marburgvirus Angola infected in African green monkey Vero cells; assay type: toxicity, cell-based; conditions: read-out: Ratio CC50/EC50
[2] = Cytotoxicity against African green monkey Vero cells infected with Zaire ebolavirus; assay type: toxicity, cell-based; conditions: chlorocebus sabaeus
[3] = Selectivity index, ratio of CC50 for cytotoxicity against African green monkey Vero cells infected with Zaire ebolavirus to EC50 for antiviral activity against Zaire ebolavirus infected in African green monkey Vero cells; assay type: toxicity, cell-based; conditions: read-out: Ratio CC50/EC50
Marburgvirus = experiment: Antiviral activity against Marburgvirus Angola infected in African green monkey Vero cells; assay type: functional, organism-based; conditions: Orthomarburgvirus
[4] = Cytotoxicity against African green monkey Vero cells infected with Marburgvirus Angola; assay type: toxicity, cell-based; conditions: chlorocebus sabaeus
[5] = (§1) Selectivity index, ratio of CC50 for cytotoxicity against African green monkey Vero cells infected with Pichinde virus AN 4763 by neutral red dye based analysis to EC50 for antiviral activity against Pichinde virus AN 4763 infected in African green monkey Vero cells by neutral red dye based analysis; assay type: toxicity, cell-based; conditions: read-out: Ratio CC50/EC50
[6] = Cytotoxicity against African green monkey Vero cells infected in Pichinde virus AN 4763 by neutral red dye based analysis; assay type: toxicity, cell-based; conditions: chlorocebus sabaeus, Vero cells infected with Pichinde virus AN 4763
Pichinde virus [7] = experiment: Antiviral activity against Pichinde virus AN 4763 infected in African green monkey Vero cells by visual analysis; assay type: functional, organism-based; conditions: AN 4763, Vero
[8] = Selectivity index, ratio of CC50 for cytotoxicity against MDCK cells infected with influenza A virus California/7/2009(H1N1) to EC50 for antiviral activity against influenza A virus California/7/2009(H1N1) infected in MDCK cells; assay type: toxicity, cell-based; conditions: dog; read-out: Ratio CC50/EC50
Pichinde virus [9] = experiment: Antiviral activity against Pichinde virus AN 4763 infected in African green monkey Vero cells by neutral red dye based analysis; assay type: functional, organism-based; conditions: AN 4763, Vero
[10] = Cytotoxicity against African green monkey Vero 76 cells infected with Rift Valley fever virus MP-12 by visual analysis; assay type: toxicity, cell-based; conditions: chlorocebus sabaeus
Tacaribe virus [11] = experiment: Antiviral activity against Tacaribe virus TRVL11573 infected in African green monkey Vero cells by neutral red dye based analysis; assay type: functional, organism-based; conditions: Mammarenavirus tacaribeense
[12] = Cytotoxicity against African green monkey Vero cells infected with Tacaribe virus TRVL11573 by visual analysis; assay type: toxicity, cell-based; conditions: chlorocebus sabaeus
[13] = Selectivity index, ratio of CC50 for cytotoxicity against African green monkey Vero cells infected with Pichinde virus AN 4763 by visual analysis to EC50 for antiviral activity against Pichinde virus AN 4763 infected in African green monkey Vero cells by visual analysis; assay type: toxicity, cell-based; conditions: read-out: Ratio CC50/EC50
Rift Valley fever virus [14] = experiment: Antiviral activity against Rift Valley fever virus MP-12 infected in African green monkey Vero 76 cells by visual analysis; assay type: functional, organism-based; conditions: MP-12, Vero 76
[15] = as §1, with “Tacaribe” for “Pichinde”, “TRVL11573” for “AN 4763”; assay type: toxicity, cell-based; conditions: read-out: Ratio CC50/EC50
Tacaribe virus [16] = experiment: Antiviral activity against Tacaribe virus TRVL11573 infected in African green monkey Vero cells by visual analysis; assay type: functional, organism-based; conditions: Mammarenavirus tacaribeense
[17] = Cytotoxicity against MDCK cells infected with influenza A virus California/7/2009(H1N1); assay type: toxicity, cell-based, Canis lupus familiaris; conditions: dog
[18] = Selectivity index, ratio of CC50 for cytotoxicity against African green monkey Vero cells infected with Tacaribe virus TRVL11573 by visual analysis to EC50 for antiviral activity against Tacaribe virus TRVL11573 infected in African green monkey Vero cells by visual analysis; assay type: toxicity, cell-based; conditions: read-out: Ratio CC50/EC50
Rift Valley fever virus [19] = experiment: Antiviral activity against Rift Valley fever virus MP-12 infected in African green monkey Vero 76 cells by neutral red dye based analysis; assay type: functional, organism-based; conditions: MP-12, Vero 76
[20] = Cytotoxicity against African green monkey Vero cells infected in Pichinde virus AN 4763 by visual analysis; assay type: toxicity, cell-based; conditions: chlorocebus sabaeus, Vero cells infected with Pichinde virus AN 4763
Influenza A virus [21] = experiment: Antiviral activity against influenza A virus California/7/2009(H1N1) infected in MDCK cells; assay type: functional, organism-based
[22] = Cytotoxicity against African green monkey Vero 76 cells infected with Rift Valley fever virus MP-12 by neutral red dye based analysis; assay type: toxicity, cell-based; conditions: chlorocebus sabaeus
[23] = Cytotoxicity against African green monkey Vero cells infected with Tacaribe virus TRVL11573 by neutral red dye based analysis; assay type: toxicity, cell-based; conditions: chlorocebus sabaeus
[24] = as §1, with “Vero 76” for “Vero”, “Rift Valley fever” for “Pichinde”, “MP-12” for “AN 4763”; assay type: toxicity, cell-based; conditions: read-out: Ratio CC50/EC50
[25] = Selectivity index, ratio of CC50 for cytotoxicity against African green monkey Vero 76 cells infected with Rift Valley fever virus MP-12 by visual analysis to EC50 for antiviral activity against Rift Valley fever virus MP-12 infected in African green monkey Vero 76 cells by visual analysis; assay type: toxicity, cell-based; conditions: read-out: Ratio CC50/EC50
[26] = Selectivity index, ratio of CC50 for cytotoxicity against African green monkey Vero 76 cells infected with Measles virus CC by visual analysis to EC50 for antiviral activity against Measles virus CC infected in African green monkey Vero 76 cells by visual analysis; assay type: toxicity, cell-based; conditions: read-out: Ratio CC50/EC50
Measles morbillivirus [27] = experiment: Antiviral activity against Measles virus CC infected in African green monkey Vero 76 cells by visual analysis; assay type: functional, organism-based
Measles morbillivirus [28] = experiment: Antiviral activity against Measles virus CC infected in African green monkey Vero 76 cells by neutral red dye based analysis; assay type: functional, organism-based
[29] = Selectivity index, ratio of CC50 for cytotoxicity against African green monkey Vero 76 cells by neutral red dye based analysis to EC50 for antiviral activity against Measles virus CC infected in African green monkey Vero 76 cells by neutral red dye based analysis; assay type: toxicity, cell-based; conditions: read-out: Ratio CC50/EC50
[30] = Cytotoxicity against African green monkey Vero 76 cells infected with Measles virus CC by neutral red dye based analysis; assay type: toxicity, cell-based; conditions: chlorocebus sabaeus
[31] = Cytotoxicity against African green monkey Vero 76 cells infected with Measles virus CC by visual analysis; assay type: toxicity, cell-based; conditions: chlorocebus sabaeus
Rift Valley fever virus [32] = experiment: Antiviral activity against Rift Valley fever virus; assay type: functional, organism-based
Influenza A virus [33] = experiment: Antiviral activity against influenza A virus H5N1; assay type: functional, organism-based
Influenza B virus = experiment: Antiviral activity against influenza B virus; assay type: functional, organism-based
Tacaribe virus [34] = experiment: Antiviral activity against Tacaribe virus; assay type: functional, organism-based; conditions: Mammarenavirus tacaribeense
Human betaherpesvirus 5 = experiment: Antiviral activity against Human betaherpesvirus 5; assay type: functional, organism-based
Norovirus = experiment: Antiviral activity against Norovirus Genogroup 1 infected in human HG23 cells; assay type: functional, organism-based; conditions: Genogroup 1, HG23
[35] = Cytotoxicity against human HG23 cells infected with Norovirus Genogroup 1; assay type: toxicity, cell-based
[36] = Selectivity index, ratio of CC50 for cytotoxicity against human HG23 cells infected with Norovirus Genogroup 1 to EC50 for antiviral activity against Norovirus Genogroup 1 infected in human HG23 cells; assay type: toxicity, cell-based; conditions: read-out: Ratio CC50/EC50

NC(=O)c1nc(F)cnc1O [FAVIPIRAVIR]
pEC50 (Zaire ebolavirus): 4.62
selectivity ratio [1]: > 6
CC50 [2]: > 1000 µM
selectivity ratio [3]: > 43
pEC50 (Marburgvirus): 3.78
CC50 [4]: > 1000 µM

NC(=O)c1ncn([C@@H]2O[C@H](CO)[C@@H](O)[C@H]2O)n1 [RIBAVIRIN]
selectivity ratio [5]: > 98
CC50 [6]: > 3560 µM
pEC50 (Pichinde virus [7]): 4.35
selectivity ratio [8]: > 670
pEC50 (Pichinde virus [9]): 4.44
CC50 [10]: > 4090 µM
pEC50 (Tacaribe virus [11]): 4.51
CC50 [12]: > 4090 µM
selectivity ratio [13]: > 91
pEC50 (Rift Valley fever virus [14]): 4.31
selectivity ratio [15]: 130
pEC50 (Tacaribe virus [16]): 4.56
CC50 [17]: > 4100 µM
selectivity ratio [18]: > 150
pEC50 (Rift Valley fever virus [19]): 4.28
CC50 [20]: > 4090 µM
pEC50 (Influenza A virus [21]): 4.66
CC50 [22]: > 4090 µM
CC50 [23]: 3930 µM
selectivity ratio [24]: > 77
selectivity ratio [25]: > 83

Nc1ccn([C@@H]2O[C@H](CO)[C@@H](O)[C@H]2F)c(=O)n1
selectivity ratio [26]: 121
pEC50 (Measles morbillivirus [27]): 5.64
pEC50 (Measles morbillivirus [28]): 5.44
selectivity ratio [29]: 69
CC50 [30]: 249 µM
CC50 [31]: 277 µM

Nc1nc(F)cc2c1ncn2[C@@H]1C=C(CO)[C@@H](O)[C@H]1O
Activity (Rift Valley fever virus [32]): Active
Activity (Influenza A virus [33]): Active
Activity (Influenza B virus): Active
Activity (Tacaribe virus [34]): Active
Activity (Human betaherpesvirus 5): Active

C[C@@]1(O)[C@H](O)[C@@H](CO)O[C@H]1n1ccc(N)nc1=O
pEC50 (Norovirus): 5.91
CC50 [35]: > 25 µM
selectivity ratio [36]: > 22
